Paper PMC6572573, “Development of a Ternary Solid Dispersion Formulation of LW6 to Improve the In Vivo Activity as a BCRP Inhibitor: Preparation and In Vitro/In Vivo Characterization” (Pharmaceutics, 2019)

What was measured:
[1] = In vitro drug release (dissolution) studies; format: physicochemical; conditions: 37 °C, 100 rpm
Experimental: The drug release profiles of each formulation were examined at different pH conditions (1.2, 4.0, and 6.8). Each formulation (drug amount equivalent to 1 mg of LW6) was dispersed in different release media (10 mL) and stirred at 100 rpm, 37 °C. At predetermined time points (10, 20, 30, 45, and 60 min), the samples were collected and filtered through a 0.45-µm pore-sized cellulose syringe filters. The drug concentration in each filtrate was determined by HPLC assay.
HPLC assay for LW6: The concentrations of LW6 from in vitro samples were determined using a HPLC system (Perkin Elmer series 200, Waltham, MA, USA) consisting of a UV detector, a pump, and an automatic injector. A reversed-phase C18 column (Gemini C18, 4.6 × 150 mm, 5 µm; Phenomenex, Torrance, CA, USA) was eluted with a mobile phase consisting of acetonitrile and 0.1% formic acid (80:20, v/v). The flow rate was 1.0 mL/min at 30 °C, and the UV wavelength was set at 254 nm. Valsartan was used as an internal standard, and the calibration curve of LW6 was linear (r^2 = 0.99) within the concentration range of 0.05 to 100 µg/mL.

BCRP = target: T1, BCRP (Rattus norvegicus, UniProt Q80W57); experiment: Oral pharmacokinetics of topotecan (BCRP substrate) in rats with/without co-administered LW6 formulations; format: in vivo
T1 construct: from tissue; host or cells: living male Sprague-Dawley rats (intestine)
T1 sequence (Q80W57 1-657): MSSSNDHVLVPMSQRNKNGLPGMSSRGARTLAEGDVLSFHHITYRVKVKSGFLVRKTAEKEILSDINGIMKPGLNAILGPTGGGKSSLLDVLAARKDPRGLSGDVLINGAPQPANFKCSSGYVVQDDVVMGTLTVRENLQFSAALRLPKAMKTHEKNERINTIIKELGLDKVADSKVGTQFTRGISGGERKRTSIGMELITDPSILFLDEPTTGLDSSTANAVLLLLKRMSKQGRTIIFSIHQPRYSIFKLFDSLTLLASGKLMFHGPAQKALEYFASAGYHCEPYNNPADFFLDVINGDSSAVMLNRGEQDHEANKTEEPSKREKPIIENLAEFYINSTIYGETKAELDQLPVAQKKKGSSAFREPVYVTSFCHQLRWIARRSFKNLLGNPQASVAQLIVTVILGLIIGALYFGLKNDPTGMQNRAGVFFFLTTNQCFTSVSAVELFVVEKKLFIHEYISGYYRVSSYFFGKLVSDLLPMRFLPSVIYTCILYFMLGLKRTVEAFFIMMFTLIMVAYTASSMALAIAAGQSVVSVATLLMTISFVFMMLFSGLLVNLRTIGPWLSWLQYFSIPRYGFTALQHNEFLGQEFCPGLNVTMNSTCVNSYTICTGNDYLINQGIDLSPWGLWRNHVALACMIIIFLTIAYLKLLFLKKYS
Experimental: The pharmacokinetic profiles of topotecan, which is a representative BCRP substrate, were examined in rats with/without the co-administration of LW6 in different formulations. Animal studies were carried out in accordance with the “Guiding Principles in the Use of Animals in Toxicology” adopted by the Society of Toxicology (USA), and the study protocol was approved by the review committee of Dongguk University (IACUC-2017-016-2). Male Sprague–Dawley rats (260–280 g) were provided by Orient bio Co., Ltd. (Seongnam, Korea). All the rats were given free access to tap water and a normal standard chow diet (Superfeed Company, Wonju, Korea). The rats were fasted for 18 h before the experiments, and divided into three groups (n = 3 per group). The pure drug or SD (equivalent to 20 mg/kg of LW6) was suspended in 0.5% aqueous methylcellulose with 5% polyethylene glycol (PEG) and topotecan (10 mg/kg) was dissolved in saline. Each formulation was given orally to the three groups of rats (group 1, topotecan only; group 2, topotecan + pure LW6; group 3, topotecan + SD of LW6). Blood samples were obtained from the femoral artery at the predetermined time points. The blood samples were centrifuged at 13,000 rpm for 5 min, and the obtained plasma samples were frozen at −20 °C until analyzed by liquid chromatography-tandem mass spectrometry (LC-MS/MS).
LC-MS/MS assay for topotecan: The concentration of topotecan in rat plasma was determined using LC-MS/MS assay as reported by Ye et al.. Briefly, 100 µL of plasma, 20 µL of the internal standard camptothecin (1 µg/mL), and 180 µL of methanol were mixed vigorously, and then centrifuged at 13,000 rpm for 5 min. After centrifugation, 240 µL of the supernatant was collected and dried under vacuum. After complete drying, the residue was re-dispersed in methanol and analyzed by LC-MS/MS. Chromatographic separation was done with a C18 column (4.6 × 100 mm, 2.6 μm; Phenomenex, Torrance, CA, USA) using a mobile phase consisting of acetonitrile and 0.1% formic acid (80:20, v/v) at a flow rate of 0.4 mL/min. Mass spectrometric detection was done using the AB Sciex API 4000 triple quadrupole mass spectrometer (AB Sciex, Framingham, MA, USA). The electrospray ionization (ESI) source was set in positive ionization mode. The precursor/product ion pair (m/z) was 422.2/377.1 for topotecan and 349.1/305.2 for camptothecin (IS). The calibration curve was prepared at concentrations of 1 to 1000 ng/mL with a good linearity of r^2 value greater than 0.99.
Based on the noncompartmental analysis, the area under the plasma concentration–time curve (AUC) was calculated using the linear trapezoidal method. The peak plasma concentration (Cmax) and the time to reach the peak plasma concentration (Tmax) were values recorded from the experimental data.

[2] = Apparent aqueous solubility of LW6 formulations (HPLC); format: physicochemical; conditions: water
Experimental: For the selection of optimal carriers, SDs of LW6 were prepared with various hydrophilic polymers at a drug–carrier ratio of 1:5 using the solvent evaporation method. Briefly, LW6 was dissolved in dichloromethane by sonication for 10 min for complete solubilization. Each polymeric carrier was dissolved in dichloromethane and added to the drug solution. After vigorous mixing, all the solvents were eliminated under vacuum at room temperature. The resulting product was milled and sieved through an 80-mesh screen. The corresponding physical mixtures (PMs) were also prepared by mixing LW6 and each carrier with a mortar and pestle. The carrier that enhanced the LW6 solubility to the greatest extent was selected for preparing the ternary SD formulations of LW6. The effect of surfactants on the solubility of LW6 was also determined using a 10% aqueous solution of various surfactants.
Each formulation equivalent to 1 mg of LW6 was dissolved in 1 mL of distilled water and stirred at 300 rpm for 48 h at room temperature. […] The drug concentration in each filtrate was measured by HPLC assay.
HPLC assay for LW6: The concentrations of LW6 from in vitro samples were determined using a HPLC system (Perkin Elmer series 200, Waltham, MA, USA) consisting of a UV detector, a pump, and an automatic injector. […]

[3] = tested on: breast cancer resistance protein (BCRP); parameters: method as in PMID 27520631; conditions: previous reports ref 4; cited from earlier work
[4] = male, Sprague-Dawley, rat, plasma, oral topotecan 10 mg/kg, with or without LW6 20 mg/kg (pure or F8-SD), mean ± SD (n = 3)

Structure (SMILES)	Drug release within 20 min ([1]; acidic to neutral pH range (pH 1.2, 4.0, 6.8))	Drug release within 1 h ([1]; water)	Increase in oral (systemic) exposure of topotecan by coadministration (BCRP; oral topotecan 10 mg/kg + LW6 20 mg/kg equivalent, versus topotecan only)	Aqueous solubility of pure LW6 (in words) [2]	BCRP inhibitory potency compared with typical BCRP inhibitor [3]	AUC (BCRP; [4]) [ng·h/mL]	Cmax (BCRP; [4]) [ng/mL]	Tmax (BCRP; [4]) [h]	half-life (BCRP; male, Sprague-Dawley, rat, plasma, oral topotecan 10 mg/kg, with or without LW6 20 mg/kg (pure or F8-SD), mean ± SD (n = 3), read-out: T1/2 of topotecan (converted)) [h]
COC(=O)c1ccc(O)c(NC(=O)COc2ccc(C34CC5CC(CC(C5)C3)C4)cc2)c1 [LW6, 3-[2-(4-adamantan-1-yl-phenoxy)-acetylamino]-4-hydroxy-benzoic acid methyl ester]	negligible	minimal	approximately threefold	practically insoluble	more potent than Kol43	–	–	–	–
CC[C@@]1(O)C(=O)OCc2c1cc1n(c2=O)Cc2cc3c(CN(C)C)c(O)ccc3nc2-1 [Topotecan, topotecan]	–	–	–	–	–	204 ± 11.1	31.3 ± 7.1	0.4 ± 0.1	2 ± 0.4
